“Also recorded” adds a separate entry of the source.
Tests used:
[1] = test system: phospho-Akt1 (pAkt); test: Phospho-Akt activation assay in human umbilical vein endothelial cells (Western blot); type: cell-based
Method: The ability of the small molecule analogues as shown in EXAMPLES 1-3 to stimulate production of phospho-Akt1 (pAkt) was tested. Akt plays a critical role in controlling cell survival and apoptosis, and Akt phosphorylation is increased by the activation of Tie-2. Akt activation can be detected by an antibody that recognizes phosphorylation on the serine 473 residue on Akt.
HUVECs were seeded at 500,000 cells/mL in chemically-defined basal media, and supplemented with distinct growth factors (EGM-2). The following growth factors were required for survival and normal phenotypic expression of endothelial characteristics: fetal bovine serum 2%, hydrocortisone, human fibroblast growth factor-B, vascular endothelial growth factor, recombinant insulin growth factor R3, ascorbic acid, human epidermal growth factor, gentamicin sulfate, amphotericin B, and heparin. Cells were derived from one donor, cultivated in 10 cm dishes, and expanded upon reaching 90% confluence. After three passages, the cells were expanded and ready for testing.
The cells were seeded at 25,000 cells/mL in 6-well plates, and covered with 2 mL of complete media. The cells were fed on day 2 of culture with 2 mL of fresh EGM-2 media. 72 hours after plating, the cells were serum starved by rinsing twice with 2 mL of sterile phosphate buffered saline, and then placed at 37° C. for 3 hours in the presence of basal EGM-2 media (1.5 mL/well without growth factors). The serum starvation allowed the cells to become quiescent.
Compounds 2-4 were dissolved in distilled deionized water at the following concentrations: • Compound 2 (Molecular weight: 622.7): 31 mg/ml. • Compound 3 (Molecular weight: 622.7): 26 mg/ml. • Compound 4 (Molecular weight: 636.7): 32 mg/ml.
All compounds were stored at 4° C. […] Stock concentrations of the above molecules were made at a final working concentration of 1 mM. Specific microliter volumes of the working concentration were added to each 6 well plate at the following concentrations: 3, 10, and 30 micromolar (μM). Cells were treated for 30 minutes.
10× cell lysis buffer was diluted fresh with dH2O. The 1× cell lysis buffer contained: 20 mM Tris-HCl (pH 7.5), 150 mM NaCl, 1 mM Na2EDTA, 1 mM EGTA, 1% Triton, 2.5 mM sodium pyrophosphate, 1 mM β-glycerophosphate, 1 mM Na3VO4, 1 μg/ml leupeptin, and 1 mM PMSF. Immediately before use, 1 mM PMSF was prepared by diluting from a stock of 1 M PMSF made up in DMSO. In addition, a 1× concentration of a Halt protease & phosphatase inhibitor cocktail was included. At the end of the 30 minute treatment, the media was discarded from the cell culture wells by shaking out, and the remaining media was aspirated off the wells. Ice-cold lysis buffer was added at 140 μL/well, and the culture was placed on ice or in a cold room for 30 minutes while rocking. Cell lysates were collected using a cell scraper, placed in microfuge tubes, and stored at −80° C. The levels of protein were quantitated using a microtiter plate BCA protein assay.
2× Laemmli sample buffer was added in equal volume to the […] cell lysis buffer, which contained the lysed endothelial cells. The solution was heated at 100° C. for 5 minutes and then sonicated for 10 seconds. After sonication, the lysates were spun by centrifuge at 4° C. for 5 minutes at 17,000 rpm. 70-100 μg of protein calculated from BCA assay prior to addition of 2× Laemmli sample were added per well of an 8% polyacrylamide gel.
Electrophoresis was performed at 150 volts for approximately 90 minutes at room temperature with 1× Laemmli running buffer. The proteins from the gel were transferred to nitrocellulose at 100 volts for 45 minutes on ice.
The nitrocellulose membranes were removed quickly without drying and placed in phosphate buffered saline (pH 7.3) with 1% nonfat dried milk. The membranes were blocked in the milk solution while rocking for 2 hours at room temperature or overnight at 4° C. […]

[2] = Syringability testing (200 g weight on BD 1-mL syringe plunger, 27 G needle); type: physicochemical; details: for Syringability: time to expel 1 mL: 50% diluted solution
Method: Syringability testing was carried out by applying 200 g of weight on top of a BD 1-mL syringe plunger and measuring the time required to expel 1 mL of the saturated solutions through a 27 G needle. The times are recorded in TABLE 4. At T=0, 43 seconds were required to expel 1 mL of Compound 2, while 8 seconds were required to expel 1 mL of Compound 4. In contrast, approximately 5 minutes were required to expel only 0.1 mL of Compound 3, based on the very high viscosity of the solution relative to that of the other two.
Syringability test results of the 50% diluted solutions (TABLE 5) indicated a slight increase in viscosity (syringability test for water was 10 sec). All three solutions remained easily syringable.

[3] = HPLC purity analyses of aqueous solutions over time at room temperature (chemical stability); type: physicochemical
[4] = Physical stability (appearance) of the aqueous solutions standing at room temperature; type: physicochemical; details: for Appearance of solution: undiluted
[5] = Solubility testing in water by portionwise addition until saturation; type: physicochemical
Method: The solubility of compounds 2-4 was determined by portionwise addition of the compounds to water until saturation was obtained. Water (10 mL) was added to a 20-mL vial. About 100 mg of Compound 2 was added. The suspension was stirred at room temperature for 20 minutes until the contents became a clear solution. Compound 2 (˜100 mg portionwise) was added repeatedly with 30 min stirring time between the additions. Once a suspension was obtained after continuous stirring for 2 hours, the suspension was stirred overnight. The same procedure was used for the suspension preparations of Compound 3 and Compound 4.
After stirring overnight, filtration of each sample was attempted.
An aliquot of the suspension of Compound 2 was filtered through a 0.22 micron inline syringe filter.
About 1 mL of the aqueous solutions prepared above was diluted with water by 50%. The pH of the 50% diluted solutions was adjusted to pH 7 either by 0.1 N HCl or by 0.1 N NaOH. Solubility values for the three compounds in the solutions/suspensions before and after dilution are given in the in TABLE 3.
The solubility of Compounds 2-4 was determined by portionwise addition of the compounds to water until saturation was obtained. After stirring overnight, the suspensions were filtered and analyzed by HPLC. […] The solubility of Compound 3 was >200 mg/mL. The absolute solubility of Compound 3 was not determined because in the course of analysis, the solution of Compound 3 became too viscous to stir. […] The 50% diluted solutions of Compounds 2-4 were not viscous, and the compounds remained in solution for 4 weeks. […] All of the diluted solutions were easily syringable over 4 weeks' time.

COC(=O)N[C@@H](Cc1ccccc1)C(=O)N(C)[C@@H](Cc1ccc(NS(=O)(=O)[O-])cc1)c1csc(-c2cccs2)n1.[Na+] [Compound 3, sodium (4-{(S)-2-{(S)-2-[(methoxycarbonyl)amino]-N-methyl-3-phenylpropanamido}-2-[2-(thiophen-2-yl)thiazol-4-yl]ethyl}phenyl)sulfamate]
pAkt signal above control ([1]; HUVECs, 30 μM, 30 minutes treatment): 80%
Relative potencies for activation of pAkt ([1]; HUVECs, 3, 10 and 30 μM): Compound 2>Compound 4>Compound 3
Syringability: time to expel 1 mL ([2]; T = 2 week): 12 s
Syringability: time to expel 1 mL ([2]; T = 3 week): 13 s
Syringability: time to expel 1 mL ([2]; T = 4 week): 15 s
Syringability: time to expel 1 mL ([2]; T = 2 day): 13 s
Syringability: time to expel 1 mL ([2]; T = 3 day): 14 s
Syringability: time to expel 1 mL ([2]; T = 4 day): 17 s
Syringability: time to expel 1 mL ([2]; T = 7 day): 15 s
Syringability of the saturated solutions (in words) ([2]; undiluted solutions): too viscous to syringe
HPLC purity ([3]; 50% diluted samples, room temperature, T = 4 weeks): 97.9%
HPLC purity ([3]; undiluted samples, T = 0 (dry sample)): 99.08%
HPLC purity ([3]; undiluted samples, room temperature, T = 5 weeks): 97.3%
HPLC purity ([3]; undiluted samples, room temperature, T = 1 day): 98.26%
Gelation or precipitation of undiluted solution ([4]; throughout the 4-week study period (Compound 2: over 5 weeks)): No gelation or precipitation
Appearance of solution ([4]; T = 0): Hazy
Appearance of solution ([4]; T = 2 week): Hazy
Appearance of solution ([4]; T = 3 week): Hazy
Appearance of solution ([4]; T = 4 week): Hazy
Appearance of solution ([4]; T = 1 day): Hazy
Appearance of solution ([4]; T = 2 day): Hazy
Appearance of solution ([4]; T = 3 day): Hazy
Appearance of solution ([4]; T = 4 day): Hazy
Appearance of solution ([4]; T = 5 day): Hazy
Appearance of solution ([4]; T = 6 day): Hazy
Physical state of the preparation ([5]; 50% dilution, T = 4 weeks): (solution)
Physical state of the preparation ([5]; Before dilution, T = 0): (viscous solution)
Solubility value in water ([5]; Before dilution, T = 5 weeks, room temperature): No change*
Amount (g) of compound added until saturation ([5]; added portionwise to 10 mL water, room temperature): 2.323 g
Physical appearance ([5]; after portionwise addition to 10 mL water): hazy, highly viscous mixture; also recorded: No precipitate
Filtration ([5]; filtration of the sample attempted after stirring overnight): not filtered successfully and No
solubility at 4 weeks ([5]; water, pH 7, aqueous buffer, 50% dilution with water, adjusted to pH 7, T = 4 weeks): > 115 mg/mL
solubility at 0 weeks ([5]; water, thermodynamic from solid, Before dilution, T = 0, estimated from weight added): > 230 mg/mL
solubility ([5]; water, thermodynamic from solid, Conclusions: suspensions stirred overnight, filtered and analyzed by HPLC, initial): > 200 mg/mL

CCc1csc([C@H](Cc2ccc(NS(=O)(=O)O)cc2)NC(=O)[C@H](Cc2ccccc2)NC(=O)OC)n1 [Compound 5, 4-{(S)-2-[(S)-2-(methoxycarbonylamino)-3-phenylpropanamido]-2-(4-ethylthiazol-2-yl)ethyl}phenylsulfamic acid, reference compound]
pAkt levels above control ([1]; HUVECs, highest dose 10 μM, two separate experiments): 278%
